In patent US10227357B2, “Compounds and methods for kinase modulation, and indications therefor” (Plexxikon Inc., priority 2012, dated 2019):

Molecular target: T1, c-kit mutant D816V (Homo sapiens, UniProt P10721, D816V/DEL694-753)
T1 construct: residues 551-934, kinase insertion domain residues 694-753 deleted; 6x-histidine (N); made in house; host or cells: E. coli Arctic Express (DE3) RIL (Stratagene)
Assay: c-Kit mutant D816V biochemical assay, AlphaScreen
Conditions: c-kit D816V biochemical inhibitory activity; read-out: Biochemical activity (IC50 μM) Kit D816V
Method: Compounds to be tested were dissolved in DMSO to a concentration of 20 mM. These were diluted 30 μl into 120 μl of DMSO (4 mM) and 1 μl was added to an assay plate. These were then serially diluted 1:3 (50 μl to 100 μl DMSO) for a total of 8 points. Plates were prepared such that each kinase reaction is 20 μl in 1× kinase buffer (25 mM HEPES, pH 7.2, 8 mM MgCl2, 2 mM MnCl2, 50 mM NaCl, 0.01% Brij, 1 mM DTT, 0.01% BSA), 5% DMSO and 10 μM ATP. […] After incubation of the kinase reaction for 30 minutes at room temperature, 5 μl of donor beads (Streptavidin coated beads (Perkin Elmer Life Science) final concentration 7.5 μg/ml) in stop buffer (25 mM Hepes pH 7.5, 100 mM EDTA, 0.01% BSA) was added, the sample was mixed and incubated for 20 minutes at room temperature before adding 5 μl of acceptor beads (PY20 coated beads (Perkin Elmer Life Science) final concentration 7.5 μg/ml) in stop buffer. The samples were incubated for 60 minutes at room temperature and the signal per well was read on EnVision reader. […] The signal vs. compound concentration was used to determine the IC50.
Cells were grown in Terrific Broth (TB) media to an OD600 of 0.6 at 37° C. at which temperature was reduced to 10° C., protein was induced with 1.0 mM IPTG for 18 hours and harvested by centrifugation at 8000×g for 20 minutes. Cells were re-suspended in 0.1M KPO4 pH 8.0, 250 mM NaCl, 10% Glycerol, 0.75% NP-40, 25 mM Imidazole, 5 mM BME with 0.2 mg/ml Lysosyme, 2.0 mM PMSF, 25 μg/ml DNAse I, incubated in ice for 30 minutes and lysed with a cell disruptor (MicroFluidics). The lysate was clarified by centrifugation at 20,000×g for 2 hours. The protein was captured with Talon resin (Clontech). Contaminating proteins were washed off with 25 mM Tris-HCl pH 8.3, 250 mM NaCl, 15% Glycerol, 1% Triton X-100, and protein eluted using 100 mM EDTA. The protein was further purified using Gel Filtration column 26/600 Superdex 200 (GE) in 50 mM Tris-HCl, pH 8.0, 250 mM NaCl, 15% Glycerol, 5 mM BME. The protein was aliquoted and flash-frozen in liquid Nitrogen.

T1 sequence (P10721 with tags, fused parts or gaps DEL694-753/D816V): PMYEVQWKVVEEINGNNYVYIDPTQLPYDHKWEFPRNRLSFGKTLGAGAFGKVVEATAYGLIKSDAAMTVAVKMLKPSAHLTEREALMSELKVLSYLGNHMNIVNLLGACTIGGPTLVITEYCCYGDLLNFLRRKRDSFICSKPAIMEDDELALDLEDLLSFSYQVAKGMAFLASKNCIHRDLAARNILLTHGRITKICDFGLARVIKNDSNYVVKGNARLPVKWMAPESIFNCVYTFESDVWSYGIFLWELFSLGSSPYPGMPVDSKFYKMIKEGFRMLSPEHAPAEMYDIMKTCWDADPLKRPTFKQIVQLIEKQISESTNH

## COc1cccc([C@H](C)NC(=O)N2CC3CCC(C2)N3c2ncnc3cc(-c4ccc(F)cc4)sc23)c1 [P-0550, 8-[6-(4-fluorophenyl)thieno[3,2-d]pyrimidin-4-yl]-N-[(1S)-1-(3-methoxyphenyl)ethyl]-3,8-diazabicyclo[3.2.1]octane-3-carboxamide]
  IC50: 1 to 10 µM

## COc1cc(-c2cc3c(N4CCC(NS(=O)(=O)c5ccc(Cl)cc5)CC4)ncnc3[nH]2)ccn1 [P-0666, 4-chloro-N-[1-[6-(2-methoxy-4-pyridyl)-7H-pyrrolo[2,3-d]pyrimidin-4-yl]-4-piperidyl]benzenesulfonamide]
  IC50: 0.0001 to 1 µM

## CCCc1ccc(S(=O)(=O)NC2CC=C(c3ncnc4[nH]c(C)cc34)CC2)cc1 (centres unmarked) [P-0651, N-[4-(6-methyl-7H-pyrrolo[2,3-d]pyrimidin-4-yl)cyclohex-3-en-1-yl]-4-propyl-benzenesulfonamide]
  IC50: 0.0001 to 1 µM

## CC(C)(C)OC(=O)N1CCN(c2ncnc3[nH]c(C(=O)Nc4ccccc4)cc23)CC1 [P-0211, tert-butyl 4-[6-(phenylcarbamoyl)-7H-pyrrolo[2,3-d]pyrimidin-4-yl]piperazine-1-carboxylate]
  IC50: 0.0001 to 1 µM

## CC(C)(NC(=O)N1CCN(c2ncnc3cc(-c4ccc(F)cc4)sc23)CC1(C)C)c1ccccc1 [P-0678, 4-[6-(4-fluorophenyl)thieno[3,2-d]pyrimidin-4-yl]-2,2-dimethyl-N-(1-methyl-1-phenyl-ethyl)piperazine-1-carboxamide]
  IC50: 1 to 10 µM

## COc1cccc([C@H](C)NC(=O)N2CCN(c3ncnc4[nH]c(-c5ccc(Cl)cc5)cc34)CC2)c1 [P-0038, 4-[6-(4-chlorophenyl)-7H-pyrrolo[2,3-d]pyrimidin-4-yl]-N-[(1S)-1-(3-methoxyphenyl)ethyl]piperazine-1-carboxamide]
  IC50: 0.0001 to 1 µM

## CCNc1ccc(-c2ncnc3[nH]c(-c4ccc(F)cc4)cc23)cn1 [P-0417, N-ethyl-5-[6-(4-fluorophenyl)-7H-pyrrolo[2,3-d]pyrimidin-4-yl]pyridin-2-amine]
  IC50: 1 to 10 µM

## C[C@H](NC(=O)N1CCN(c2ncnc3[nH]c(-c4ccc(C#N)cc4)cc23)C[C@H]1C)c1cccc(OC(F)F)c1 [P-0699, (2R)-4-[6-(4-cyanophenyl)-7H-pyrrolo[2,3-d]pyrimidin-4-yl]-N-[(1S)-1-[3-(difluoromethoxy)phenyl]ethyl]-2-methyl-piperazine-1-carboxamide]
  IC50: 0.0001 to 1 µM

## COc1cccc(CNC(=O)N2CCN(c3ncnc4[nH]c(-c5ccc(F)cc5)cc34)CC2)n1 [P-0122, 4-[6-(4-fluorophenyl)-7H-pyrrolo[2,3-d]pyrimidin-4-yl]-N-[(6-methoxy-2-pyridyl)methyl]piperazine-1-carboxamide]
  IC50: 1 to 10 µM

## CC(=O)Nc1ccc(-c2ncnc3cc(-c4ccc(F)cc4)sc23)cc1 [P-0632, N-[4-[6-(4-fluorophenyl)thieno[3,2-d]pyrimidin-4-yl]phenyl]acetamide]
  IC50: 10 to 200 µM

## Cc1cc2c(N3CCC(NS(=O)(=O)c4ccc(OC(F)F)cc4)CC3)ncnc2[nH]1 [P-0656, 4-(difluoromethoxy)-N-[1-(6-methyl-7H-pyrrolo[2,3-d]pyrimidin-4-yl)-4-piperidyl]benzenesulfonamide]
  IC50: 10 to 200 µM

## Cc1nn(C)cc1-c1cc2ncnc(N3CC4CCC3CN4C(=O)N[C@H](C)c3ccc(F)cc3)c2s1 (stereo partly drawn) [P-0704, 5-[6-(1,3-dimethylpyrazol-4-yl)thieno[3,2-d]pyrimidin-4-yl]-N-[(1R)-1-(4-fluorophenyl)ethyl]-2,5-diazabicyclo[2.2.2]octane-2-carboxamide]
  IC50: 0.0001 to 1 µM

## O=C(NCCc1ccc(F)cc1)N1CCN(c2ncnc3[nH]ccc23)CC1 [P-0164, N-[2-(4-fluorophenyl)ethyl]-4-(7H-pyrrolo[2,3-d]pyrimidin-4-yl)piperazine-1-carboxamide]
  IC50: 10 to 200 µM

## Cc1cc2c(N3CCC(NS(=O)(=O)c4ccc(C(C)C)cc4)CC3)ncnc2[nH]1 [P-0657, 4-isopropyl-N-[1-(6-methyl-7H-pyrrolo[2,3-d]pyrimidin-4-yl)-4-piperidyl]benzenesulfonamide]
  IC50: 10 to 200 µM

## COc1ccc(S(=O)(=O)NC2CCN(c3ncnc4[nH]c(-c5cnn(C)c5)cc34)CC2)cc1 [P-0496, 4-methoxy-N-[1-[6-(1-methylpyrazol-4-yl)-7H-pyrrolo[2,3-d]pyrimidin-4-yl]-4-piperidyl]benzenesulfonamide]
  IC50: 0.0001 to 1 µM

## Cc1cc2c(-c3ccc(NS(=O)(=O)c4ccc(C(C)C)cc4)cc3)ncnc2[nH]1 [P-0306, 4-isopropyl-N-[4-(6-methyl-7H-pyrrolo[2,3-d]pyrimidin-4-yl)phenyl]benzenesulfonamide]
  IC50: 1 to 10 µM

## Cn1cc(-c2cc3c(N4CCC(NS(=O)(=O)c5ccc(N6CCCC6=O)cc5)CC4)ncnc3[nH]2)cn1 [P-0483, N-[1-[6-(1-methylpyrazol-4-yl)-7H-pyrrolo[2,3-d]pyrimidin-4-yl]-4-piperidyl]-4-(2-oxopyrrolidin-1-yl)benzenesulfonamide]
  IC50: 0.0001 to 1 µM

## C[C@H](NC(=O)N1CCN(c2ncnc3cc(-c4ccc(F)cc4)sc23)C[C@H]1C)c1ccc(F)cc1 [P-0601, (2R)-N-[(1S)-1-(4-fluorophenyl)ethyl]-4-[6-(4-fluorophenyl)thieno[3,2-d]pyrimidin-4-yl]-2-methyl-piperazine-1-carboxamide]
  IC50: 1 to 10 µM

## C[C@@H]1CN(c2ncnc3[nH]c(-c4ccc(F)cc4)cc23)CCN1C(=O)N[C@H](C)c1ccc(F)cc1 [P-0034, (2R)-N-[(1R)-1-(4-fluorophenyl)ethyl]-4-[6-(4-fluorophenyl)-7H-pyrrolo[2,3-d]pyrimidin-4-yl]-2-methyl-piperazine-1-carboxamide]
  IC50: 1 to 10 µM

## Cn1cc(-c2cc3c(N4CCC(NS(=O)(=O)c5ccccc5OC(F)(F)F)CC4)ncnc3[nH]2)cn1 [P-0493, N-[1-[6-(1-methylpyrazol-4-yl)-7H-pyrrolo[2,3-d]pyrimidin-4-yl]-4-piperidyl]-2-(trifluoromethoxy)benzenesulfonamide]
  IC50: 10 to 200 µM

## O=C(NCCc1ccccc1)N1CCN(c2ncnc3[nH]c(-c4ccc(F)cc4)cc23)CC1 [P-0162, 4-[6-(4-fluorophenyl)-7H-pyrrolo[2,3-d]pyrimidin-4-yl]-N-phenethyl-piperazine-1-carboxamide]
  IC50: 10 to 200 µM

## Cc1cc2c(-c3ccc(S(=O)(=O)NC4CC4)cc3)ncnc2[nH]1 [P-0380, N-cyclopropyl-4-(6-methyl-7H-pyrrolo[2,3-d]pyrimidin-4-yl)benzenesulfonamide]
  IC50: 10 to 200 µM

## C[C@H](NC(=O)N1CCN(c2ncnc3[nH]c(-c4ccc(C#N)cc4)cc23)CC1(C)C)c1ccc(F)cc1 [P-0685, 4-[6-(4-cyanophenyl)-7H-pyrrolo[2,3-d]pyrimidin-4-yl]-N-[(1S)-1-(4-fluorophenyl)ethyl]-2,2-dimethyl-piperazine-1-carboxamide]
  IC50: 1 to 10 µM

## CC[C@H](NC(=O)N1CCN(c2ncnc3[nH]c(-c4ccncc4)cc23)C[C@@H]1C)c1ccccc1 [P-0048, (2S)-2-methyl-N-[(1S)-1-phenylpropyl]-4-[6-(4-pyridyl)-7H-pyrrolo[2,3-d]pyrimidin-4-yl]piperazine-1-carboxamide]
  IC50: 0.0001 to 1 µM

## O=C(NCc1ccc(Cl)cc1)N1CCN(c2ncnc3[nH]c(C4CC4)cc23)CC1 [P-0138, N-[(4-chlorophenyl)methyl]-4-(6-cyclopropyl-7H-pyrrolo[2,3-d]pyrimidin-4-yl)piperazine-1-carboxamide]
  IC50: 0.0001 to 1 µM

## C[C@H](NC(=O)N1CCN(c2ncnc3[nH]c(-c4ccc(F)cc4)cc23)CC1)c1ccc(F)cc1 [P-0126, N-[(1S)-1-(4-fluorophenyl)ethyl]-4-[6-(4-fluorophenyl)-7H-pyrrolo[2,3-d]pyrimidin-4-yl]piperazine-1-carboxamide]
  IC50: 0.0001 to 1 µM

## C[C@H](NC(=O)N1CCN(c2ncnc3[nH]c(-c4ccc(C#N)cc4)cc23)CC1)c1ccc(Cl)cc1 [P-0702, N-[(1S)-1-(4-chlorophenyl)ethyl]-4-[6-(4-cyanophenyl)-7H-pyrrolo[2,3-d]pyrimidin-4-yl]piperazine-1-carboxamide]
  IC50: 0.0001 to 1 µM

## O=C(NC(=O)N1CCN(c2ncnc3[nH]c(-c4ccc(F)cc4)cc23)CC1)c1ccccc1 [P-0143, N-benzoyl-4-[6-(4-fluorophenyl)-7H-pyrrolo[2,3-d]pyrimidin-4-yl]piperazine-1-carboxamide]
  IC50: 1 to 10 µM

## O=C(NC(=O)N1CCN(c2ncnc3[nH]ccc23)CC1)c1ccccc1 [P-0174, N-benzoyl-4-(7H-pyrrolo[2,3-d]pyrimidin-4-yl)piperazine-1-carboxamide]
  IC50: 10 to 200 µM
